Experimental data from patent US20220280594A1, “APPLICATION OF POLYPEPTIDE OR DERIVATIVE THEREOF” (CHENGDU HUITAI BIOMEDICINE CO., LTD., priority 2019, published 2022).
Ends that are not written are not given here. PEG = not defined here

How the values were obtained:
Format in all cases: cell-based
[1] = tested on: human non-small cell lung cancer cells (A549); experiment: scratch assay, migration of A549 cells; conditions: A549, 10 μM, 48 hours; control group 75.31 ± 8.19
Outline: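 Confluent A549 monolayers in 24-well plates were scratched, washed with PBS, then cultured 48 h in 2% FBS medium with peptide at 10 μM or PBS control, triplicate wells. Scratch width measured from images; migration rate (%) = (original − current width)/original width × 100.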

[2] = tested on: human lung cancer cells (95D); experiment: scratch assay, migration of 95D cells; conditions: 10 μM, 48 hours, control group 55.3 ± 3.19
Outline: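 Confluent 95D monolayers were scratched, washed with PBS and cultured 48 h in 2% FBS medium containing peptide (10 μM) or PBS control, in triplicate wells. Scratch width was measured on images; migration rate (%) = (original width − current width)/original width × 100.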

[3] = tested on: human lung squamous carcinoma cells (NCI-H226); experiment: scratch assay, migration of NCI-H226 cells; conditions: NCI-H226, 10 μM, 48 hours; control group 65.31 ± 3.19
Outline: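 A straight scratch was made in confluent NCI-H226 monolayers (1-2×10^5 cells/well). Cells were then kept 48 h in 2% FBS medium with 10 μM polypeptide or PBS control, triplicate wells. Migration rate (%) = (original − current scratch width)/original width ×100, from imaged scratch widths.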

[4] = tested on: human pancreatic cancer cells (PANC-1); experiment: scratch assay, migration of PANC-1 cells; conditions: PANC-1, 10 μM, 48 hours; control group 66.65 ± 3.37
Outline: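 PANC-1 monolayers were scratched, then cultured for 48 h with 10 μM test compound in 2% FBS medium, in three parallel wells per group against a PBS control. Migration rate (%) was calculated as (original minus current scratch width) / original width × 100, from imaged wells.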

[5] = tested on: human liver cancer cells (HepG2); experiment: scratch assay, migration of HepG2 cells; conditions: HepG2, 10 μM, 48 hours; control group 71.01 ± 6.63
Outline: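 HepG2 monolayers scratched, then cultured 48 h in 2% FBS medium with test polypeptides at 10 μM versus PBS control, triplicate wells. Migration rate (%) computed from original versus current scratch width in images.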

[6] = tested on: human breast cancer cells (MDA-MB-453); experiment: scratch assay, migration of MDA-MB-453 cells; conditions: MDA-MB-453, 10 μM, 48 hours; control group 32.42 ± 2.04
Outline: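 Confluent MDA-MB-453 monolayers were scratched, then treated with peptide at 10 μM in 2% FBS medium for 48 h, with a PBS control and triplicate wells. Migration rate (%) was taken as (original − current scratch width)/original width ×100 from images.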

[7] = tested on: human breast cancer cells (MDA-MB-231); experiment: scratch assay, migration of MDA-MB-231 cells; conditions: MDA-MB-231, 10 μM, 48 hours; control group 36.19 ± 5.15
Outline: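 MDA-MB-231 monolayers (1-2×10^5 cells/well) were scratched, then kept 48 h in medium with 2% FBS containing polypeptide at 10 μM, with a PBS control, in triplicate wells. Migration rate (%) was taken from scratch width: (original − current)/original ×100.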

[8] = tested on: human breast cancer cells (MCF-7); experiment: scratch assay, migration of MCF-7 cells; conditions: MCF-7, 10 μM, 48 hours; control group 30.97 ± 1.79
Outline: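 MCF-7 monolayers scratched, then cultured 48 hours in 2% FBS medium with test peptide at 10 μM versus PBS control, triplicate wells. Migration rate (%) = (original − current scratch width)/original width × 100, measured from images.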

[9] = tested on: human melanoma cells (A375); experiment: scratch assay, migration of A375 cells; conditions: A375, 10 μM, 48 hours; control group 44.03 ± 6.21
Outline: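 Monolayers scratched, washed with PBS and cultured 48 hours in 2% FBS medium with polypeptides N1-N54 at 10 μM or PBS control, three wells per group. Migration rate (%) = (original − current scratch width)/original width×100, from imaged scratch widths.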

[10] = tested on: human oral epidermoid carcinoma KB cells; experiment: scratch assay, migration of KB cells; conditions: 10 μM, 48 hours, control group 54.03 ± 4.21
Outline: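 Monolayers of KB cells were scratched, washed with PBS, then cultured 48 hours in 2% FBS medium containing test polypeptide (10 μM) or PBS control, in triplicate wells. From images, migration rate (%) = (original − current scratch width)/original width × 100.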

[11] = tested on: human pharyngeal squamous-cell carcinoma cells (Fadu); experiment: scratch assay, migration of Fadu cells; conditions: 10 μM, 48 hours, control group 28.76 ± 4.08
Outline: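 Confluent Fadu monolayers scratched, then cultured 48 h with 10 μM polypeptide in medium with 2% FBS; PBS control, triplicate wells. Migration rate (%) = (original − current scratch width)/original width × 100, from ≥3 images per well.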

[12] = tested on: human colon cancer cells (HCT-116); experiment: scratch assay, migration of HCT-116 cells; conditions: HCT-116, 10 μM, 48 hours; control group 47.78 ± 6.07
Outline: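 Confluent HCT-116 monolayers were scratched, washed and cultured 48 h in 2% FBS medium with peptide at 10 μM versus PBS control, triplicate wells. Migration rate (%) = (original minus current scratch width)/original width × 100, from at least 3 images per well.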

[13] = tested on: human thyroid cancer cells (FRO); experiment: scratch assay, migration of FRO cells; conditions: 10 μM, 48 hours, control group 60.34 ± 8.32
Outline: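 FRO monolayers were scratched, washed, and cultured 48 h in 2% FBS medium with polypeptide derivatives at 10 μM or PBS control, three wells per group. Migration rate (%) = (original − current scratch width)/original width × 100, measured from images.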

[14] = tested on: human prostate cancer cells (22RV1); experiment: scratch assay, migration of 22RV1 cells; conditions: 22RV1, 10 μM, 48 hours; control group 25.41 ± 5.01
Outline: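 22RV1 monolayers (seeded 1-2×10^5 cells/well) were scratched, washed, then given 2% FBS medium with 10 μM polypeptide or PBS, triplicate wells, for 48 h. Migration rate (%) = (original − current scratch width)/original width ×100, from ≥3 images per well.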

Substance	Migration rate (%) (mean ± SD, P) [1]	Migration rate (%) (mean ± SD, P) [2]	Migration rate (%) (mean ± SD, P) [3]	Migration rate (%) (mean ± SD, P) [4]	Migration rate (%) (mean ± SD, P) [5]	Migration rate (%) (mean ± SD, P) [6]	Migration rate (%) (mean ± SD, P) [7]	Migration rate (%) (mean ± SD, P) [8]	Migration rate (%) (mean ± SD, P) [9]	Migration rate (%) (mean ± SD, P) [10]	Migration rate (%) (mean ± SD, P) [11]	Migration rate (%) (mean ± SD, P) [12]	Migration rate (%) (mean ± SD, P) [13]	Migration rate (%) (mean ± SD, P) [14]
N17: SEQ ID NO: 1 with addition of two amino acids to the carboxyl terminal (YRVRFLAKENVTQDAEDNCT)	18.31 ± 9.26,** %	18.31 ± 8.26,** %	43.38 ± 4.83,** %	15.47 ± 5.29,*** %	43.42 ± 3.16,** %	4.51 ± 1.96,*** %	12.04 ± 4.13,** %	11.47 ± 4.24,** %	14.35 ± 2.52,*** %	14.35 ± 2.52,** %	8.78 ± 2.34,*** %	23.09 ± 2.41,*** %	11.38 ± 2.27,*** %	4.61 ± 1.64,** %
N30: SEQ ID NO: 1 with deletion of positions 1-5 and 15-18 and PEG modification at the carboxyl terminal (LAKENVTQD-{PEG}; reading uncertain)	24.57 ± 3.19,*** %	33.91 ± 3.36,** %	13.91 ± 7.36,*** %	16.60 ± 5.85,*** %	16.60 ± 7.85,*** %	15.77 ± 2.33,*** %	9.02 ± 2.02,*** %	14.34 ± 4.06,* %	6.96 ± 2.18,*** %	8.75 ± 3.35,*** %	13.85 ± 3.59,** %	12.41 ± 2.99,*** %	5.16 ± 1.67,*** %	10.82 ± 2.55,* %
N25: SEQ ID NO: 1 with substitution N18R and addition of two amino acids at the carboxyl terminal (YRVRFLAKENVTQDAEDRCT)	34.66 ± 7.73,** %	40.70 ± 3.25,** %	15.03 ± 8.16,*** %	25.36 ± 7.32,*** %	14.22 ± 7.10,*** %	21.05 ± 2.53,* %	12.93 ± 4.38,** %	9.16 ± 2.51,** %	17.67 ± 2.41,** %	18.32 ± 2.63,** %	9.89 ± 2.47,*** %	18.70 ± 2.39,** %	14.31 ± 2.47,*** %	13.02 ± 2.27,* %
N4: SEQ ID NO: 1 with deletion of positions 15-18 and positions 1-3 (RFLAKENVTQD)	51.53 ± 3.72,* %	31.65 ± 3.82,** %	10.00 ± 10.27,** %	19.04 ± 8.54,*** %	25.37 ± 6.11,*** %	15.74 ± 4.83,* %	21.44 ± 2.59,* %	13.6 ± 2.28,** %	5.06 ± 2.32,*** %	5.96 ± 2.32,*** %	14.32 ± 2.67,** %	25.48 ± 2.79,** %	11.34 ± 2.73,*** %	13.44 ± 3.24,* %
N35: SEQ ID NO: 1 with A15R, addition of one amino acid and PEG modification at the carboxyl terminal (YRVRFLAKENVTQDREDNC-{PEG}; reading uncertain)	32.27 ± 9.53,** %	22.47 ± 5.12,*** %	42.47 ± 5.12,** %	36.83 ± 5.92,** %	16.83 ± 7.92,*** %	8.46 ± 2.77,*** %	18.12 ± 5.23,* %	17.38 ± 2.55,* %	19.51 ± 2.28,** %	6.07 ± 2.30,*** %	8.71 ± 1.79,*** %	9.08 ± 2.64,*** %	8.04 ± 2.90,*** %	7.13 ± 2.23,** %
N15: SEQ ID NO: 1 with substitution N18R and addition of one amino acid to the carboxyl terminal (YRVRFLAKENVTQDAEDRC)	14.98 ± 9.09,** %	24.09 ± 6.40,** %	35.05 ± 3.95,** %	14.85 ± 5.08,*** %	53.20 ± 5.58,* %	8.95 ± 2.93,*** %	13.03 ± 5.72,** %	11.57 ± 2.10,** %	10.62 ± 2.53,*** %	40.62 ± 3.53,* %	12.45 ± 4.28,** %	10.41 ± 2.99,*** %	8.84 ± 2.27,*** %	8.36 ± 2.03,** %
N2: SEQ ID NO: 1 with deletion of one amino acid (position 18) at the carboxyl terminal (YRVRFLAKENVTQDAED)	47.79 ± 3.12,** %	36.44 ± 4.16,** %	12.42 ± 8.44,*** %	32.74 ± 4.26,** %	13.05 ± 6.50,*** %	12.96 ± 3.13,** %	20.92 ± 2.16,* %	12.32 ± 2.26,** %	6.52 ± 1.25,*** %	6.82 ± 3.25,*** %	10.71 ± 2.30,** %	23.42 ± 6.12,** %	22.88 ± 5.43,** %	6.48 ± 2.97,** %
